Assay results from US11802107B2, “Compounds and methods of use” (Signum Biosciences, Inc., priority 2017, dated 2023).
Converted amounts (≈) assume the structure as drawn. Counter-ions that a name gives are not always drawn. Like-named read-outs stand apart in the source and are kept apart here.

Columns and labels:
P. acnes (ATCC 6919) [1] = test: Minimal inhibitory concentration (MIC) against P. acnes; type: cell-based, Propionibacterium acnes; conditions: P. acnes ATCC 6919, 10^6 CFU/mL
Description: To determine minimal inhibitory concentration (MIC), reagents were dissolved in vehicle (5% v/v) and then added to bacteria suspension. P. acnes (ATCC® 6919TM) at 10^6 CFU/mL was incubated with test materials at the concentrations of two-fold serial dilution (0.25-500 μg/mL) and incubated for 72 hours (P. acnes).

Balb/C mice = test: Oxazolone-induced delayed-type hypersensitivity (DTH) in vivo model; conditions: Mus musculus, topical to ears @ 3% w/v, 24 hours, read-out: Edema % inhibition
Description: Inbred male Balb/C mice were purchased from Hilltop Lab Animals (Scottdale, PA) and were used between 8 and 10 weeks of age. Mice backs were shaved and 100 μl of 3% v/v Oxazolone (Sigma Aldrich, Cat No. E0753) in acetone/olive oil (4:1) was applied to dorsal skin for sensitization. On Day 7, ears were challenged with 0.5% v/v Oxazolone and 30 minutes after challenge, test materials at 3% w/v were applied to ears (10 μl applied both to the dorsal and ventral surfaces of the mouse ear using a solvent pipette) and 24 hours later, skin thickness (edema) was measured. A 6-mm punch biopsy was obtained from each ear, snap frozen in liquid nitrogen. Ear skin biopsy punches were pulverized using FastPrep®-24 Biopulverizer (MP Biomedical, CatNo. 116004500) and Lysing Matrix A tubes (CatNo. 16910050). Protein extracts were obtained using 500 μL/tissue of cold T-PER buffer (ThermoFisher, CatNo. 78510) with Protease inhibitors (Sigma-Aldich, CatNo. 58820-20TAB). Soluble protein fractions were used to measure cytokine levels (IL-4) using ELISA kit (BD Biosciences® #555232). Results were represented as percent of inhibition relative to unsensitized and sensitized-only treated animals. Vehicle for presently disclosed compounds was 60:40 H2O:EtOH and 1:1 Acetone:EtOH for AN2718. (n=5-15 animals per treatment group).
Compound C was further analyzed at various dosages against 0.4 mg/ear of […] by the above protocol, data representing the average±S.E. of cumulative data from three independent experiments (n=12-15 mice per group) is shown below: […]

IL-8 = test: P. acnes-induced IL-8 on human NHEKs; type: cell-based; conditions: NHEK, live P. acnes 10^7 CFU, 24 hours, ELISA, read-out: P. acnes-NHEK IL-8 Protein IC50
Description: Normal human epidermal keratinocytes (NHEKs) from neonatal donors were obtained from Thermo-Fisher (Cat No. C-001-5C). Cells were cultured in 96-well plates for 24 hours with EpiLife media (Cat No. MEPI500CA) supplemented with keratinocytes growth supplement (Cat No. S0015). On Day 2, media was removed and replaced with supplement-depleted medium for 24 hours. On Day 3, media was removed and cells were pre-treated with test materials ([…]) for 2 hours and later co-treated with test materials and live P. acnes (ATCC® 6919TM) at 10^7 CFU for 24 hours at 37° C. and 5% CO2. After incubation, cell media supernatants were harvested and used to measure pro-inflammatory cytokine levels (IL-8) using ELISA kits (BD Biosciences® #555244). Results were represented as percent of inhibition relative to untreated and P. acnes-only treated cells. IC50 values were determined by non-linear regression analysis using the four-parameter logistic equation.

P. acnes (ATCC 6919) [2] = test: Minimal bactericidal concentration (MBC) against P. acnes; type: cell-based, Propionibacterium acnes; conditions: Cutibacterium acnes, ATCC6919; P. acnes 10^7 CFU/mL, in PBS, anaerobic conditions
[3] = Cutibacterium acnes, ATCC6919, 72 h, read-out: MIC

Structure (SMILES)	MIC (P. acnes (ATCC 6919) [1]; [3]) [µg/mL]	further results
C/C(=C\CSCC(Nc1ncccn1)C(=O)O)CCCC(C)CCCC(C)CCCC(C)C (centres unmarked) [BF]	> 125	–
CC(=O)NC(CC(N)=O)C(=O)NC(CSC/C=C(\C)CCCC(C)CCCC(C)CCCC(C)C)C(=O)O (centres unmarked) [P]	10 (≈ 18 µM)	–
C/C(=C\CSC(C)(C)C(Nc1ncc(C(=O)O)cn1)C(=O)O)CCCC(C)CCCC(C)CCCC(C)C (centres unmarked) [BP]	> 125	–
C/C(=C/CSC[C@H](NC(=O)N(C)CC(=O)O)C(=O)O)CCCC(C)CCCC(C)CCCC(C)C (stereo partly drawn) [Compound BI, (2R)-2-{[(carboxymethyl)(methyl)carbamoyl]amino}-3-{[(2Z)-3,7,11,15-tetramethylhexadec-2-en-1-yl]sulfanyl}propanoic acid]	12 (≈ 23.3 µM)	–
CCC[C@@H]1C[C@@H](C(=O)N[C@@H]([C@H]2O[C@H](SC)[C@H](O)[C@@H](O)[C@H]2O)[C@H](C)Cl)N(C)C1 [Clindamycin HCl, reference compound]	0.06	–
C/C(=C\CSC(C)(C)C(NC(=O)CCC(=O)O)C(=O)O)CCCC(C)CCCC(C)CCCC(C)C (centres unmarked) [BO]	125 (≈ 237 µM)	–
C/C(=C\CSCC(Nc1nccc(C(=O)O)n1)C(=O)O)CCCC(C)CCCC(C)CCCC(C)C (centres unmarked) [BG]	42 (≈ 80.5 µM)	–
C/C(=C\CSCC(NC(=O)N1CCC(C(=O)O)CC1)C(=O)O)CCCC(C)CCCC(C)CCCC(C)C (centres unmarked) [Y]	50 (≈ 90.1 µM)	inhibition in vivo at 3 % strength (Balb/C mice): 0%
CSCCC(NC(C)=O)C(=O)NC(CSC/C=C(\C)CCCC(C)CCCC(C)CCCC(C)C)C(=O)O (centres unmarked) [L]	–	MIC (P. acnes (ATCC 6919) [1]; 72 hours): >16 µg/mL
C/C(=C\CSCC(NC(=O)c1ccc(C(=O)O)cc1)C(=O)O)CCCC(C)CCCC(C)CCCC(C)C (centres unmarked) [X]	> 25	inhibition in vivo at 3 % strength (Balb/C mice): 15%
C/C(=C\CSCC(NC(=O)CCC(N)=O)C(=O)O)CCCC(C)CCCC(C)CCCC(C)C (centres unmarked) [F]	6 (≈ 12 µM)	IC50 (IL-8; Homo sapiens): 1690 nM
CC(=O)NC(C(=O)NC(CSC/C=C(\C)CCCC(C)CCCC(C)CCCC(C)C)C(=O)O)C(C)CO (centres unmarked) [K]	> 250	–
CC(=O)NC(COC(C)(C)C)C(=O)NC(CSC/C=C(\C)CCCC(C)CCCC(C)CCCC(C)C)C(=O)O (centres unmarked) [R]	> 25	inhibition in vivo at 3 % strength (Balb/C mice): 24%
CC(=O)N[C@@H](CC(=O)O)C(=O)NC(CSC/C=C(\C)CCCC(C)CCCC(C)CCCC(C)C)C(=O)O (some centres unmarked) [J]	32 (≈ 57.5 µM)	inhibition in vivo at 3 % strength (Balb/C mice): 10%
C/C(=C\CSC[C@H](Nc1ncc(C(=O)O)c(C)n1)C(=O)O)CCCC(C)CCCC(C)CCCC(C)C (some centres unmarked) [BL]	7 (≈ 13.1 µM)	MBC (P. acnes (ATCC 6919) [2]): > 62 µg/mL
C/C(=C\CSCC(Nc1ncc(C(=O)O)cn1)C(=O)O)CCCC(C)CCCC(C)CCCC(C)C (centres unmarked) [BH]	4 (≈ 7.67 µM)	MBC (P. acnes (ATCC 6919) [2]): 16 µg/mL (≈ 30.7 µM)
C/C(=C\CSCC(Nc1nccc(N(C)CC(=O)O)n1)C(=O)O)CCCC(C)CCCC(C)CCCC(C)C (centres unmarked) [BN]	8 (≈ 14.2 µM)	MBC (P. acnes (ATCC 6919) [2]): 31 µg/mL (≈ 54.9 µM)
CC(=O)NC(C(=O)NC(CSC/C=C(\C)CCCC(C)CCCC(C)CCCC(C)C)C(=O)O)C(C)O (centres unmarked) [N]	> 250	–
C[C@H]1c2cccc(O)c2C(=O)C2=C(O)[C@]3(O)C(=O)C(C(N)=O)=C(O)[C@@H](N(C)C)[C@@H]3[C@@H](O)[C@@H]21 [Doxycycline, reference compound]	< 0.2	–
O=C(O)CN(CC(=O)O)C(=O)NC12CC3CC(CC(C3)C1)C2 [AY]	> 125	–

Structure (SMILES)	MIC (P. acnes (ATCC 6919) [1]; [3]) [µg/mL]	further results
C/C(=C\CSCC(Nc1ccnc(N(C)CC(=O)O)n1)C(=O)O)CCCC(C)CCCC(C)CCCC(C)C (centres unmarked) [BM]	6 (≈ 10.6 µM)	MBC (P. acnes (ATCC 6919) [2]): > 62 µg/mL
CC(C)=CCC/C(C)=C/CC/C(C)=C/CSCC(NC(=O)COCC(=O)O)C(=O)O (centres unmarked) [AQ]	> 125	–
C/C(=C\CSC[C@H](NC(=O)N1CCC1C(=O)O)C(=O)O)CCCC(C)CCCC(C)CCCC(C)C (some centres unmarked) [AZ]	63 (≈ 120 µM)	–
CC(=O)NC(Cc1ccccc1)C(=O)NC(CSC/C=C(\C)CCCC(C)CCCC(C)CCCC(C)C)C(=O)O (centres unmarked) [O]	32 (≈ 54.3 µM)	–
C/C(=C\CSC[C@H](NC(=O)Nc1ncc(C(=O)O)c(C(F)(F)F)n1)C(=O)O)CCCC(C)CCCC(C)CCCC(C)C (some centres unmarked) [BB]	31 (≈ 49 µM)	–
C/C(=C\CSc1ccc(C(=O)O)cn1)CCCC(C)CCCC(C)CCCC(C)C (centres unmarked) [BA]	> 125	–
C/C(=C\CSCC(NC(=O)N1CCCCC1C(=O)O)C(=O)O)CCCC(C)CCCC(C)CCCC(C)C (centres unmarked) [AW]	> 125	–
C/C(=C\CSCC(NC(=O)N1CCCC(C(=O)O)C1)C(=O)O)CCCC(C)CCCC(C)CCCC(C)C (centres unmarked) [BE]	23 (≈ 41.5 µM)	–
C/C(=C\CSC[C@H](Nc1cnc(C(=O)O)cn1)C(=O)O)CCCC(C)CCCC(C)CCCC(C)C (some centres unmarked) [BK]	31 (≈ 59.4 µM)	–
CSCC(NC(=O)N(CC(=O)O)CC(=O)O)C(=O)O (centres unmarked) [AX]	> 125	–
C/C(=C\CSCC(NC(=O)N1CC(O)CC1C(=O)O)C(=O)O)CCCC(C)CCCC(C)CCCC(C)C (centres unmarked) [BC]	12 (≈ 21.6 µM)	–
C[C@H]1C[C@H]2[C@@H]3CCC4=CC(=O)C=C[C@]4(C)[C@@]3(F)[C@@H](O)C[C@]2(C)[C@@]1(O)C(=O)CCl [Clobetasol, reference compound]	–	IC50 (IL-8): 33 nM
C/C(=C\CSCC(NC(=O)C(O)(CC(=O)O)CC(=O)O)C(=O)O)CCCC(C)CCCC(C)CCCC(C)C (centres unmarked) [U]	19 (≈ 33.1 µM)	inhibition in vivo at 3 % strength (Balb/C mice): 18%
C/C(=C\CSC[C@H](NC(=O)N(CC#N)CC(N)=O)C(=O)O)CCCC(C)CCCC(C)CCCC(C)C (some centres unmarked) [BJ]	23 (≈ 42.7 µM)	–
C/C(=C\CSCC(NC(=O)N1CCCCC1)C(=O)O)CCCC(C)CCCC(C)CCCC(C)C (centres unmarked) [BD]	> 125	–
C/C(=C\CSCC(N/C(=N/C#N)N(C)CC(=O)O)C(=O)O)CCCC(C)CCCC(C)CCCC(C)C (centres unmarked) [W]	62 (≈ 115 µM)	inhibition in vivo at 3 % strength (Balb/C mice): 22%
C/C(=C\CSCC(NC(=O)c1ccc(O)c(C(=O)O)c1)C(=O)O)CCCC(C)CCCC(C)CCCC(C)C (centres unmarked) [H]	6 (≈ 10.6 µM)	inhibition in vivo at 3 % strength (Balb/C mice): 14%; IC50 (IL-8; Homo sapiens): 20 nM
CC(C)=CCC/C(C)=C/CC/C(C)=C/CSCC(NC(=O)N(CC(=O)O)CC(=O)O)C(=O)O (centres unmarked) [AF]	> 125	–
CC(=O)NC(CC(C)C)C(=O)NC(CSC/C=C(\C)CCCC(C)CCCC(C)CCCC(C)C)C(=O)O (centres unmarked) [M]	16 (≈ 28.8 µM)	–
CC(C)=CCC/C(C)=C/CC/C(C)=C/CSCC(NC(=O)N1CCCC1C(=O)O)C(=O)O (centres unmarked) [AD]	> 125	–
